Active and inactive are the calls of the source. No rule for the calls is given here.
Test system: CCRIS mutagenicity, Ames/micronucleus/aberration tests
Test: CCRIS mutagenicity studies
Conditions: Test System: AMES SALMONELLA TYPHIMURIUM
[1] = Strain/Indicator: TA98, Metabolic Activation: NONE, Method: PREINCUBATION
[2] = Strain/Indicator: TA100, Metabolic Activation: NONE, Method: PREINCUBATION
[3] = Strain/Indicator: TA1535, Metabolic Activation: NONE, Method: PREINCUBATION
[4] = Strain/Indicator: TA1537, Metabolic Activation: NONE, Method: PREINCUBATION
[5] = Strain/Indicator: TA98, Metabolic Activation: NONE, Method: STANDARD PLATE

Measured: mutagenic call

CCCCCCC=O
inactive: Strain/Indicator: TA97, Metabolic Activation: HAMSTER, LIVER, S-9, AROCLOR 1254 (10%), Method: PREINCUBATION inactive; negative | Strain/Indicator: TA97, Metabolic Activation: HAMSTER, LIVER, S-9, AROCLOR 1254 (30%), Method: PREINCUBATION inactive; negative | Strain/Indicator: TA97, Metabolic Activation: NONE, Method: PREINCUBATION inactive; negative | Strain/Indicator: TA97, Metabolic Activation: RAT, LIVER, S-9, AROCLOR 1254 (10%), Method: PREINCUBATION inactive; negative | Strain/Indicator: TA97, Metabolic Activation: RAT, LIVER, S-9, AROCLOR 1254 (30%), Method: PREINCUBATION inactive; negative | Strain/Indicator: TA98, Metabolic Activation: HAMSTER, LIVER, S-9, AROCLOR 1254 (10%), Method: PREINCUBATION inactive; negative | Strain/Indicator: TA98, Metabolic Activation: HAMSTER, LIVER, S-9, AROCLOR 1254 (30%), Method: PREINCUBATION inactive; negative | [1] inactive; negative | Strain/Indicator: TA98, Metabolic Activation: RAT, LIVER, S-9, AROCLOR 1254 (10%), Method: PREINCUBATION inactive; negative | Strain/Indicator: TA98, Metabolic Activation: RAT, LIVER, S-9, AROCLOR 1254 (30%), Method: PREINCUBATION inactive; negative | Strain/Indicator: TA100, Metabolic Activation: HAMSTER, LIVER, S-9, AROCLOR 1254 (10%), Method: PREINCUBATION inactive; negative | Strain/Indicator: TA100, Metabolic Activation: HAMSTER, LIVER, S-9, AROCLOR 1254 (30%), Method: PREINCUBATION inactive; negative | [2] inactive; negative | Strain/Indicator: TA100, Metabolic Activation: RAT, LIVER, S-9, AROCLOR 1254 (10%), Method: PREINCUBATION inactive; negative | Strain/Indicator: TA100, Metabolic Activation: RAT, LIVER, S-9, AROCLOR 1254 (30%), Method: PREINCUBATION inactive; negative | Strain/Indicator: TA1535, Metabolic Activation: HAMSTER, LIVER, S-9, AROCLOR 1254 (10%), Method: PREINCUBATION inactive; negative | Strain/Indicator: TA1535, Metabolic Activation: HAMSTER, LIVER, S-9, AROCLOR 1254 (30%), Method: PREINCUBATION inactive; negative | [3] inactive; negative | Strain/Indicator: TA1535, Metabolic Activation: RAT, LIVER, S-9, AROCLOR 1254 (10%), Method: PREINCUBATION inactive; negative | Strain/Indicator: TA1535, Metabolic Activation: RAT, LIVER, S-9, AROCLOR 1254 (30%), Method: PREINCUBATION inactive; negative | Strain/Indicator: TA1537, Metabolic Activation: HAMSTER, LIVER, S-9, AROCLOR 1254 (30%), Method: PREINCUBATION inactive; negative | [4] inactive; negative | Strain/Indicator: TA1537, Metabolic Activation: RAT, LIVER, S-9, AROCLOR 1254 (30%), Method: PREINCUBATION inactive; negative

CCC1(C(C)O)OC1(C(N)=O)C(=O)OC (configuration not stated)
inactive: Strain/Indicator: TA98, Metabolic Activation: NONE, Method: DISK ASSAY inactive; negative | [5] inactive; negative | Strain/Indicator: TA98, Metabolic Activation: RAT, LIVER, S-9, AROCLOR 1254, Method: DISK ASSAY inactive; negative | Strain/Indicator: TA98, Metabolic Activation: RAT, LIVER, S-9, AROCLOR 1254, Method: STANDARD PLATE inactive; negative

OCc1ccco1
inactive: Strain/Indicator: TA98, Metabolic Activation: HAMSTER LIVER S-9, AROCLOR 1254 (10%), Method: PREINCUBATION inactive; negative | [1] inactive; negative | [5] inactive; negative | Strain/Indicator: TA98, Metabolic Activation: RAT LIVER S-9, AROCLOR 1254 (10%), Method: PREINCUBATION inactive; negative | Strain/Indicator: TA98, Metabolic Activation: RAT, LIVER, S-9, AROCLOR 1254, Method: PREINCUBATION inactive; negative | Strain/Indicator: TA98, Metabolic Activation: S-9, Method: STANDARD PLATE inactive; negative | Strain/Indicator: TA100, Metabolic Activation: HAMSTER LIVER S-9, AROCLOR 1254 (10%), Method: PREINCUBATION inactive; negative | [2] inactive; negative | Strain/Indicator: TA100, Metabolic Activation: NONE, Method: STANDARD PLATE inactive; negative | Strain/Indicator: TA100, Metabolic Activation: RAT LIVER S-9, AROCLOR 1254 (10%), Method: PREINCUBATION inactive; negative | Strain/Indicator: TA100, Metabolic Activation: RAT, LIVER, S-9, AROCLOR 1254, Method: PREINCUBATION inactive; negative | Strain/Indicator: TA100, Metabolic Activation: S-9, Method: STANDARD PLATE inactive; negative | Strain/Indicator: TA102, Metabolic Activation: NONE, Method: PREINCUBATION inactive; negative | Strain/Indicator: TA102, Metabolic Activation: RAT, LIVER, S-9, AROCLOR 1254, Method: PREINCUBATION inactive; negative | Strain/Indicator: TA1535, Metabolic Activation: HAMSTER LIVER S-9, AROCLOR 1254 (10%), Method: PREINCUBATION inactive; negative | [3] inactive; negative | Strain/Indicator: TA1535, Metabolic Activation: RAT LIVER S-9, AROCLOR 1254 (10%), Method: PREINCUBATION inactive; negative | Strain/Indicator: TA1537, Metabolic Activation: HAMSTER LIVER S-9, AROCLOR 1254 (10%), Method: PREINCUBATION inactive; negative | [4] inactive; negative | Strain/Indicator: TA1537, Metabolic Activation: RAT LIVER S-9, AROCLOR 1254 (10%), Method: PREINCUBATION inactive; negative

From PubChem BioAssay AID1259407 (Chemical Carcinogenesis Research Information System (CCRIS), 2018)
